Earlier results as cited in PMC4860896 (Theranostics, 2016).

OCC1[C@H]2CC/C=C/CC[C@@H]12 (stereo partly drawn) [compound 4, (1R,8S,E)-bicyclo[6.1.0]non-4-en-9-ylmethanol]
rate constant of reaction of sTCO with diphenyl-s-tetrazine derivatives (at 25 °C in water, prior study): up to 2.86 x 10^5 M^-1s^-1
rate constant of tetrazine ligation, fastest measured (room temperature conjugations in water, listed as sTCO): ≤ 3.3e+06 M⁻¹ s⁻¹
